Measurements reported in US11801272B2, “Bacillus strains improving health and performance of production animals” (Novozymes A/S, priority 2015, dated 2023).
Converted amounts (≈) assume the structure as drawn. Where two headings read alike, the source gives them in different places. Where a SMILES comes first, the peptide text is derived from it. Bridges are numbered along the chain shown (N, C = ends). [ ]: non-standard residue; d: D form. The star is where a group is joined. Ileψ(thiazoline)Cys = CC[C@H](C)[C@H](N)C1=N[C@H](C(=O)*)CS1; dOrn = NCCC[C@@H](N)C(=O)O

Tests used:
B. subtilis DSM 29871 = assay type: cell-based; settings: Bacillus subtilis
[1] = tested on: B. amyloliquefaciens DSM 29869; assay type: cell-based; settings: Bacillus amyloliquefaciens, DSM29869, 37° C., 20-24 h
B. subtilis DSM 29870 = assay type: cell-based; settings: Bacillus subtilis
Clostridium perfringens = assay type: in vivo, broiler chickens Cobb×Cobb; settings: infected, bacitracin 50 ppm
[2] = Trial 1, DSM 29870 1.10^9 CFU/kg of feed
[3] = Trial 3, DSM 29870 5.10^8 CFU/kg of feed

SMILES	MIC (B. subtilis DSM 29871; DSM29871, read-out: MIC 1)	MIC (B. subtilis DSM 29871; DSM29871, read-out: MIC 2)	MIC (B. subtilis DSM 29871; DSM29871, read-out: MIC 3)	MIC ([1]; biological replicate 1, read-out: MIC 1)	MIC ([1]; biological replicate 2, read-out: MIC 2)	MIC ([1]; biological replicate 3, read-out: MIC 3)	MIC (B. subtilis DSM 29870; DSM29870, read-out: MIC 1)	MIC (B. subtilis DSM 29870; DSM29870, read-out: MIC 2)	MIC (B. subtilis DSM 29870; DSM29870, read-out: MIC 3)	Dead birds with necrotic enteritis lesions (d1-d28) (Clostridium perfringens; [2])	Total mortality (d1-d28) (Clostridium perfringens; [2])	Dead birds with necrotic enteritis lesions (d1-d28) (Clostridium perfringens; Trial 2, DSM 29870 5.10^8 CFU/kg of feed)	Dead birds with necrotic enteritis lesions (d1-d28) (Clostridium perfringens; [3])	Total mortality (d1-d28) (Clostridium perfringens; [3])
CN[C@H](CC(C)C)C(=O)N[C@H]1C(=O)N[C@@H](CC(N)=O)C(=O)N[C@H]2C(=O)N[C@H]3C(=O)N[C@H](C(=O)N[C@H](C(=O)O)c4cc(O)cc(O)c4-c4cc3ccc4O)[C@H](O)c3ccc(c(Cl)c3)Oc3cc2cc(c3O[C@@H]2O[C@H](CO)[C@@H](O)[C@H](O)[C@H]2O[C@H]2C[C@](C)(N)[C@H](O)[C@H](C)O2)Oc2ccc(cc2Cl)[C@H]1O [Vancomycin]	0.25 µg/mL (≈ 0.173 µM)	0.25 µg/mL (≈ 0.173 µM)	0.25 µg/mL (≈ 0.173 µM)	0.25 µg/mL (≈ 0.173 µM)	0.25 µg/mL (≈ 0.173 µM)	0.25 µg/mL (≈ 0.173 µM)	0.25 µg/mL (≈ 0.173 µM)	0.25 µg/mL (≈ 0.173 µM)	0.25 µg/mL (≈ 0.173 µM)					
CC[C@H](C)[C@H](N)C1=N[C@H](C(=O)N[C@@H](CC(C)C)C(=O)N[C@H](CCC(=O)O)C(=O)N[C@H](C(=O)N[C@H]2CCCCNC(=O)[C@H](CC(N)=O)NC(=O)[C@@H](CC(=O)O)NC(=O)[C@H](Cc3cnc[nH]3)NC(=O)[C@@H](Cc3ccccc3)NC(=O)[C@H]([C@@H](C)CC)NC(=O)[C@@H](CCCN)NC2=O)[C@@H](C)CC)CS1 [bacitracin] ({Ileψ(thiazoline)Cys}-L[dE]IK[dOrn]I[dF]H[dD]N; lactam 4-C)										1.6b %	5.0b %	6.3c %	4.7bc %	15.0a %
